Measurements: ChEMBL document CHEMBL3244280, “Thiazolinone analogues of indolmycin with antiviral and antibacterial activity” (J Med Chem, 1978)
In brackets after ≈: the same amount, converted by molar mass. Activity calls are given as the source filed them. No cut-off for these calls is given here.

Experiments:
Streptococcus pyogenes [1] = experiment: Antibacterial activity against Streptococcus pyogenes CN10 up to 200 ug/ml; type: functional, organism-based
Bacillus subtilis [2] = experiment: Antibacterial activity against Bacillus subtilis up to 200 ug/ml; type: functional, organism-based
[3] = Cytotoxicity against BHK cells up to 100 ug/ml by carbol fuschin assay; type: cell-based, Mesocricetus auratus; details: hamster
Staphylococcus aureus [4] = experiment: Antibacterial activity against Staphylococcus aureus Russel up to 200 ug/ml; type: functional, organism-based
Enterococcus faecalis [5] = experiment: Antibacterial activity against Streptococcus faecalis I up to 200 ug/ml; type: functional, organism-based
Human alphaherpesvirus 1 = experiment: Antiviral activity against Herpes simplex virus 1 infected in chick embryo fibroblasts by plaque reduction assay; type: functional, organism-based
HeLa = experiment: Cytotoxicity against human HeLa cells up to 100 ug/ml; type: cell-based
Staphylococcus aureus [6] = experiment: Antibacterial activity against Staphylococcus aureus 1517 up to 200 ug/ml; type: functional, organism-based
Staphylococcus aureus [7] = experiment: Antibacterial activity against Staphylococcus aureus Oxford up to 200 ug/ml; type: functional, organism-based
Influenza A virus [8] = experiment: Antiviral activity against influenza A virus NWS/H0N1 infected in BHK cells up to 100 ug/ml by agar diffusion assay; type: functional, organism-based
Coxsackievirus B1 [9] = experiment: Antiviral activity against Coxsackievirus B1 infected in human HeLa cells up to 100 ug/ml by agar diffusion assay; type: functional, organism-based
Staphylococcus aureus [10] = experiment: Antibacterial activity against Staphylococcus aureus Russel; type: functional
Streptococcus pyogenes [11] = experiment: Antibacterial activity against Streptococcus pyogenes CN10; type: functional
Coxsackievirus B1 [12] = experiment: Antiviral activity against Coxsackievirus B1 infected in human HeLa cells at 1 mg/ml by agar diffusion assay; type: functional; details: Enterovirus B; read-out: IZ
Staphylococcus aureus [13] = experiment: Antibacterial activity against Staphylococcus aureus Oxford; type: functional
[14] = Cytotoxicity against BHK cells; type: cell-based, Mesocricetus auratus; details: hamster
Staphylococcus aureus [15] = experiment: Antibacterial activity against Staphylococcus aureus 1517; type: functional
Influenza A virus [16] = experiment: Antiviral activity against influenza A virus NWS/H0N1 infected in BHK cells at 1 mg/ml by agar diffusion assay; type: functional; details: read-out: IZ
Bacillus subtilis [17] = experiment: Antibacterial activity against Bacillus subtilis; type: functional
Influenza A virus [18] = experiment: Antiviral activity against influenza A virus NWS/H0N1 infected in BHK cells by agar diffusion assay; type: functional
Enterococcus faecalis [19] = experiment: Antibacterial activity against Streptococcus faecalis I; type: functional
Coxsackievirus B1 [20] = experiment: Antiviral activity against Coxsackievirus B1 infected in human HeLa cells by agar diffusion assay; type: functional
[21] = Cytotoxicity against human HeLa cells by neutral red assay; type: cell-based

Structure (SMILES) | Activity (Streptococcus pyogenes [1]) | Activity (Bacillus subtilis [2]) | Activity [3] | Activity (Staphylococcus aureus [4]) | Activity (Enterococcus faecalis [5]) | Activity (Human alphaherpesvirus 1) | Activity (HeLa) | Activity (Staphylococcus aureus [6]) | Activity (Staphylococcus aureus [7]) | Activity (Influenza A virus [8]) | Activity (Coxsackievirus B1 [9]) | MIC (Staphylococcus aureus [10]) | MIC (Streptococcus pyogenes [11]) | zone of inhibition at 1000 µg/mL (Coxsackievirus B1 [12]) | MIC (Staphylococcus aureus [15]) | zone of inhibition at 1000 µg/mL (Influenza A virus [16]) | MIC (Bacillus subtilis [17]) | MIC (Enterococcus faecalis [19]) | other results
C/N=C1/SC(Cc2c[nH]c3ccccc23)C(=O)N1C (racemic) | inactive | inactive | Non-toxic | inactive | inactive | inactive | Non-toxic | inactive | inactive | inactive | inactive | – | – | – | – | – | – | – | –
CNC1=NC(=O)[C@H]([C@H](C)c2c[nH]c3ccccc23)O1 (racemic) [INDOMYCIN] | – | – | – | – | – | – | – | – | – | – | – | 2 µg/mL (≈ 7.77 µM) | 200 µg/mL (≈ 777 µM) | 0 mm | 2 µg/mL (≈ 7.77 µM) | 0 mm | 20 µg/mL (≈ 77.7 µM) | 2 µg/mL (≈ 7.77 µM) | MIC (Staphylococcus aureus [13]): 2 µg/mL (≈ 7.77 µM); MCC [14]: > 100 µg/mL; PDD50 (Influenza A virus [18]): >100 µg/mL
O=C1N=C(NCCO)SC1Cc1c[nH]c2ccccc12 (racemic) | inactive | inactive | Non-toxic | inactive | inactive | inactive | Non-toxic | inactive | inactive | inactive | inactive | – | – | – | – | – | – | – | –
CNC1=NC(=O)[C@@H]([C@H](C)c2c[nH]c3ccccc23)O1 (racemic) | – | – | – | – | – | – | – | – | – | – | – | 200 µg/mL (≈ 777 µM) | > 200 µg/mL | 0 mm | 200 µg/mL (≈ 777 µM) | 0 mm | > 200 µg/mL | 200 µg/mL (≈ 777 µM) | MIC (Staphylococcus aureus [13]): 200 µg/mL (≈ 777 µM); MCC [14]: > 100 µg/mL; PDD50 (Influenza A virus [18]): >100 µg/mL
OC(c1ccccc1)c1nc2ccccc2[nH]1 (stereo not drawn) | – | – | – | – | – | – | – | – | – | – | – | – | – | 24 mm | – | 0 mm | – | – | PDD50 (Coxsackievirus B1 [20]): 20 µg/mL; MCC [14]: > 100 µg/mL; PDD50 (Influenza A virus [18]): >100 µg/mL; MCC [21]: 100 µg/mL
CNC1=NC(=O)[C@H]([C@H](C)c2c[nH]c3ccccc23)S1 (racemic) [listing 1 of 2 here] | – | – | – | – | – | – | – | – | – | – | – | 2 µg/mL (≈ 7.32 µM) | 200 µg/mL (≈ 732 µM) | 29 mm | 2 µg/mL (≈ 7.32 µM) | 36 mm | 20 µg/mL (≈ 73.2 µM) | 2 µg/mL (≈ 7.32 µM) | PDD50 (Coxsackievirus B1 [20]): 5 µg/mL; MIC (Staphylococcus aureus [13]): 2 µg/mL (≈ 7.32 µM); MCC [14]: 10 µg/mL; PDD50 (Influenza A virus [18]): 3 µg/mL; MCC [21]: 30 µg/mL
C[C@H](c1c[nH]c2ccccc12)[C@@H]1SC(NCCN(C)C)=NC1=O.Cl (racemic) | inactive | inactive | Non-toxic | inactive | inactive | inactive | Non-toxic | inactive | inactive | inactive | inactive | – | – | – | – | – | – | – | –
NC1=NC(=O)C(Cc2c[nH]c3ccccc23)S1 (racemic) | – | – | – | – | – | inactive | – | – | – | – | – | 200 µg/mL (≈ 815 µM) | > 200 µg/mL | 0 mm | 200 µg/mL (≈ 815 µM) | 0 mm | > 200 µg/mL | 200 µg/mL (≈ 815 µM) | MIC (Staphylococcus aureus [13]): 200 µg/mL (≈ 815 µM)
CNC1=NC(=O)[C@@H]([C@@H](C)c2c[nH]c3ccccc23)S1 | inactive | inactive | Non-toxic | inactive | inactive | inactive | Non-toxic | inactive | inactive | inactive | inactive | – | – | – | – | – | – | – | –
CNC1=NC(=O)C(Cc2cn(C)c3ccccc23)S1 (racemic) | inactive | inactive | Non-toxic | inactive | inactive | inactive | Non-toxic | inactive | inactive | inactive | inactive | – | – | – | – | – | – | – | –
CNC1=NC(=O)[C@H]([C@H](C)c2c[nH]c3ccccc23)S1 | – | – | – | – | – | inactive | – | – | – | – | – | – | – | – | – | – | – | – | –
CCN1C(=N)SC(Cc2c[nH]c3ccccc23)C1=O (racemic) | inactive | inactive | Non-toxic | inactive | inactive | inactive | Non-toxic | inactive | inactive | inactive | inactive | – | – | – | – | – | – | – | –
CC1(C)S[C@@H]2[C@H](NC(=O)[C@H](N)c3ccccc3)C(=O)N2[C@H]1C(=O)O [AMPICILLIN] | – | – | – | – | – | – | – | – | – | – | – | 2 µg/mL (≈ 5.72 µM) | 2 µg/mL (≈ 5.72 µM) | – | 20 µg/mL (≈ 57.2 µM) | – | 2 µg/mL (≈ 5.72 µM) | 2 µg/mL (≈ 5.72 µM) | MIC (Staphylococcus aureus [13]): 2 µg/mL (≈ 5.72 µM)
C[C@H](c1c[nH]c2ccccc12)[C@@H]1SC(N)=NC1=O | – | – | – | – | – | inactive | – | – | – | – | – | 20 µg/mL (≈ 77.1 µM) | 200 µg/mL (≈ 771 µM) | 0 mm | 20 µg/mL (≈ 77.1 µM) | 0 mm | 200 µg/mL (≈ 771 µM) | 20 µg/mL (≈ 77.1 µM) | MCC [14]: 100 µg/mL; PDD50 (Influenza A virus [18]): 50 µg/mL
CCNC1=NC(=O)C(Cc2c[nH]c3ccccc23)S1 (racemic) | inactive | inactive | Non-toxic | inactive | inactive | inactive | Non-toxic | inactive | inactive | inactive | inactive | – | – | – | – | – | – | – | –
CN(C)C1=NC(=O)C(Cc2c[nH]c3ccccc23)S1 (racemic) | inactive | inactive | Non-toxic | inactive | inactive | inactive | Non-toxic | inactive | inactive | inactive | inactive | – | – | – | – | – | – | – | –
C[C@H](c1c[nH]c2ccccc12)[C@@H]1SC(N(C)C)=NC1=O (racemic) | – | – | – | – | – | inactive | – | – | – | – | – | 20 µg/mL (≈ 69.6 µM) | > 200 µg/mL | 0 mm | 20 µg/mL (≈ 69.6 µM) | 0 mm | > 200 µg/mL | > 200 µg/mL | MIC (Staphylococcus aureus [13]): 20 µg/mL (≈ 69.6 µM)
O=C1N/C(=N\c2ccccc2)SC1Cc1c[nH]c2ccccc12 (racemic) | inactive | inactive | Non-toxic | inactive | inactive | inactive | Non-toxic | inactive | inactive | inactive | inactive | – | – | – | – | – | – | – | –
CNC1=NC(=O)[C@H]([C@H](C)c2c[nH]c3ccccc23)S1 (racemic) [listing 2 of 2 here] | – | – | – | – | – | inactive | – | – | – | – | – | – | – | – | – | – | – | – | –
O=C1N=C(NCc2ccccc2)SC1Cc1c[nH]c2ccccc12 (racemic) | inactive | inactive | Non-toxic | inactive | inactive | inactive | Non-toxic | inactive | inactive | inactive | inactive | – | – | – | – | – | – | – | –
CN1C(=N)SC(Cc2c[nH]c3ccccc23)C1=O (racemic) | inactive | inactive | Non-toxic | inactive | inactive | inactive | Non-toxic | inactive | inactive | inactive | inactive | – | – | – | – | – | – | – | –
C/N=C1/S[C@@H]([C@H](C)c2c[nH]c3ccccc23)C(=O)N1C (racemic) | inactive | inactive | Non-toxic | inactive | inactive | inactive | Non-toxic | inactive | inactive | inactive | inactive | 2 µg/mL (≈ 6.96 µM) | 200 µg/mL (≈ 696 µM) | – | 2 µg/mL (≈ 6.96 µM) | – | 20 µg/mL (≈ 69.6 µM) | 2 µg/mL (≈ 6.96 µM) | PDD50 (Coxsackievirus B1 [20]): 3 µg/mL; MIC (Staphylococcus aureus [13]): 2 µg/mL (≈ 6.96 µM); MCC [14]: 4 µg/mL; PDD50 (Influenza A virus [18]): 1.2 µg/mL; MCC [21]: 12 µg/mL
NC(=O)c1ncn([C@@H]2O[C@H](CO)[C@@H](O)[C@H]2O)n1 [RIBAVIRIN] | – | – | – | – | – | – | – | – | – | – | – | – | – | 0 mm | – | 28 mm | – | – | PDD50 (Coxsackievirus B1 [20]): >100 µg/mL; MCC [14]: > 100 µg/mL; PDD50 (Influenza A virus [18]): 1 µg/mL; MCC [21]: > 100 µg/mL
O=C1NC(=S)SC1Cc1c[nH]c2ccccc12 (racemic) | inactive | inactive | Non-toxic | inactive | inactive | inactive | Non-toxic | inactive | inactive | inactive | inactive | – | – | – | – | – | – | – | –
